Test results reported in patent US20050261162A1, “Pharmaceutical composition for preventing and treating cancer and treating an inflammation” (priority 2001, published 2005).
Several values for one entry are separate records, joined by “and”; a condition that tells them apart may be missing. Equal values may be shown once.

How the values were obtained:
[1] = tested on: Salmonella typhimurium TA102 strain; assay: Antimutagenic effect on mutagenesis induced by reactive oxygen species (His+ revertant colonies); assay type: cell-based; settings: compared with curcumin as positive control
Method: The antimutagenic effect of xanthorrhizol was examined in Salmonella typhimurium TA102 strain including mutagenesis with reactive oxygen species (Levin, D. E., et al., Proc. Natl. Acad. Sci. U. S. A., 79;7445-7449, 1982).
Salmonella typhimurium TA102 strain was cultured in Oxoid nutrient broth medium for 11 hours. 100 μl of above-cultured medium was added to 600 μl of the reaction mixture containing tert-butylhydroperoxide (100 μg/plate) or hydrogen peroxide (50 μg/plate) with or without xanthorrhizol and incubated for 30 minutes at 37° C. Curcumin was added instead of xanthorrhizol in positive control. The concentration of xanthorrhizol or curcumin was 0, 10, 20, 40, 60 nmol/plate and 2, 4, 8, 10, 20, 50 nmol/plate respectively in experiment to examine the inhibitory effect of xanthorrhizol against tert-butylhydroperoxide and hydrogen peroxide-induced mutagenesis. The reaction mixture was transferred to 2 ml of top agar solution containing 0.5 mM of histidine and biotin and was homogeneously mixed. It was poured to minimal glucose plate. The plates were incubated for 48 hours at 37° C. and the number of His+ revertant colonies counted.

COX-2 = target: T1, COX-2 (Mus musculus, UniProt Q05769); assay: Inhibition of LPS-induced COX-2 activity (PGE2 production) in RAW264.7 macrophage cells; assay type: cell-based; settings: LPS 1 μg/ml, 16 hr
T1 construct: endogenous in cells; host or cells: RAW264.7 macrophage cells, LPS-stimulated
T1 sequence (Q05769 18-604): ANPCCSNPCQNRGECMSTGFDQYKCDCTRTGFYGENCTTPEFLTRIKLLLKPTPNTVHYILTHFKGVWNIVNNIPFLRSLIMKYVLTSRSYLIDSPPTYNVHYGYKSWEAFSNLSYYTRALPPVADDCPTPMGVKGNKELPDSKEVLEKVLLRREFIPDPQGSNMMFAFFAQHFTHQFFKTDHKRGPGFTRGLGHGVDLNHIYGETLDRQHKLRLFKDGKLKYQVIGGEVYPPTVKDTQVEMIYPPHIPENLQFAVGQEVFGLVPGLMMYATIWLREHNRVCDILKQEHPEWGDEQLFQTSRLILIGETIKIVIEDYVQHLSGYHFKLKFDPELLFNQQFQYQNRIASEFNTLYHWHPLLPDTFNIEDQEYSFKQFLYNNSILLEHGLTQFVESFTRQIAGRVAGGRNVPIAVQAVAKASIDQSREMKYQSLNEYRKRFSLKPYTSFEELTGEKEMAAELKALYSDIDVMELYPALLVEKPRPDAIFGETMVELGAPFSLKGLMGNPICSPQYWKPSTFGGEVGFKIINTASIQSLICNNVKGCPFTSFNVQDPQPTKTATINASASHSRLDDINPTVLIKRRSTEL
Method: If a cell was treated with LPS, the activity of COX-2 increases. On the basis of this fact, to investigate the effect of xanthorrhizol on LPS-induced COX-2 activity, the quantity of PGE2 released from cells was measured as follows.
RAW264.7 macrophage cells were maintained in DMEM supplemented with penicillin-streptomycin and 10% FBS at 37° C., in 5% CO2 of humidified air. The cells (10×10^5 cells/ml, 200 μl) were allowed to adhere for 4 hr in the presence of aspirin (500 μM) in a 96-well culture plate to inhibit irreversibly COX activity in cells, washed 3 times with media, and then incubated in the fresh medium with 1 μg/ml of LPS. Xanthorrhizol was simultaneously added to each well. After an additional 16 hr incubation, the media were recovered and analyzed by PGE2 enzyme immunometric assay. The medium recovered from each well was added to each well attached anti-PGE2 antibody (Amersham Life Science, Arlington Heights, Ill.) with PGE2-acetylcholineesterase tracer, incubated for 18 hr at room temperature and then washed five times with 0.05% Tween 20-phosphate buffer solution. […] Absorbance at 405 nm was measured. PGE2 in each medium treated with xanthorrhizol was quantified in calibration curve graphed with standard PGE2. […] The percentage inhibition was expressed as [1-(PGE2 level of sample/PGE2 level of vehicle treated−control)]×100.

IκBα = assay: Inhibition of IκB degradation in mouse skin treated with TPA (western blotting); assay type: in vivo; settings: mouse skin cytoplasmic extract, topical pretreatment before TPA
Method: To examine the effect of xanthorrhizol on IκB, the level of IκB was measured in mouse skin. Cytoplasmic extract was prepared as follows. The mouse skin tissue obtained by the same method of embodiment 4 was homogenized in hypotonic buffer solution [10 mM HEPES, pH 7.8, 10 mM KCl, 2 mM MgCl2, 1 mM DTT, 0.1 mM EDTA, 0.1 mM phenylmethylsulfonyl fluoride (PMSF)]. To the homogenates was added 125 μl of 10% Nondiet P-40 solution and the mixture was then centrifuged for 30 sec. The supernatant (cytoplasmic extract) was electrophoresized on the 12% SDS-polyacrylamide gel. Blot was transferred from SDS-polyacrylamide gel to PVDF membrane, blocked with 5% fat-free dry milk-PBST buffer for 2 hr at room temperature and then washed in PBST buffer. Membrane was incubated for 2 hr at room temperature with rabbit IκBα polyclonal antibody (Santa Cruz Product, Santa Cruz, Calif., USA). Blot was rinsed with PBST, incubated with anti-rabbit horseradish peroxidase-conjugated secondary antibody (Santa Crus product, Santa Cruz, Calif., USA) and again washed 3 times in PBST buffer for 5 min. Transferred protein was visualized with an ECL detection kit.

HL-60 cells = assay: Flow cytometric cell cycle analysis of HL-60 cells (sub-G1 phase); assay type: cell-based, Human; settings: 24 hours, control 20%
Method: The effect of xanthorrhizol on cell cycle was examined by flow cytometric analysis. HL-60 cells were cultured in serum-free RPMI 1640 medium for 48 hr to stop cell cycle at GO phase. The medium was exchanged to 10% FBS-RPMI 1640 media with 0, 20, 60 μM of xanthorrhizol, respectively. 24 hours later, the cells obtained after centrifugation were fixed in 70% ethanol at −20° C. overnight. The cells were washed twice again with PBS, and incubated with 100 U/ml of Rnase at 37° C. for 1 hr. The cell pellet was resuspended in propidium iodide solution after washing twice with PBS. The cells were analyzed by flow cytometry and the result was represented at FIG. 11.

CC(C)=CCC[C@@H](C)c1ccc(C)c(O)c1 [xanthorrhizol]
inhibitory effect against mutagenesis induced by hydrogen peroxide ([1]; hydrogen peroxide 50 μg/plate): more excellent inhibitory effect
inhibitory effect against mutagenesis induced by tert-butylhydroperoxide ([1]; tert-butylhydroperoxide 100 μg/plate): more excellent inhibitory effect
IC50 (COX-2): 321 nM and 320 nM
percentage inhibition of LPS-induced PGE2 production (COX-2 activity) (COX-2; concentration of not less than 1 μg/ml): not less than 98%
degradation of IκBα induced by TPA (IκBα): inhibited by xanthorrhizol in a dose dependent manner
proportion of cells in sub-G1 phase (apoptosis peak) (HL-60 cells; 20 μM): 36%
proportion of cells in sub-G1 phase (apoptosis peak) (HL-60 cells; 60 μM): 76%
